Experimental data from US12492232B2, “Methods for producing proteins” (South Australian Health and Medical Research Institute …, priority 2018, dated 2025).
Entries after “also recorded” stand apart in the source; their conditions may differ.

Experiments:
mTORC1 signalling = mTORC1 signalling (Western blot, S6K1 and rpS6) in transfected CHO cells starved of serum and amino acids, with or without TSC1/2 co-transfection; format: cell-based; conditions: for mTORC1 signalling in the absence of upstream activation: no serum 16 h, D-PBS 1 h, compared to empty vector and Rheb-WT; for mTORC1 signalling when co-transfected with TSC1/TSC2: no serum and amino acids
Procedure: (§1) GTP. GST-Rheb bound to GDP or GTP was pulled down using glutathione beads and the nucleotides were then separated by thin-layer chromatography and visualized by phosphorimager. The positions of GDP and GTP are shown (FIG. 1A). […] FIGS. 1C-1D: CHO cells were co-transfected using Lipofectamine 3000 with vectors encoding wildtype (WT) Rheb or the indicated mutants and TSC1/2 as indicated. 36 h after transfection, cells were transferred to Ham's F12 media lacking FBS for 16 h. Cells were the transferred to Dulbecco's phosphate-buffered saline (D-PBS, which lacks amino acids) for 1 h before cell lysates were harvested for SDS-PAGE and Western Blotting analysis using the indicated antibodies.

[1] = tested on: mTORC1 localisation at the lysosome; experiment: Immunofluorescence of mTOR and LAMP1 colocalisation in serum-starved transfected CHO cells; format: cell-based; conditions: medium lacking FBS for 16 h
Procedure: (§2) 24 h after transfection cells were transferred to medium lacking FBS for 16 hours. Cells were fixed with 4% paraformaldehyde, permeabilized with 0.05% Triton X-100, blocked with 10% normal donkey serum before LAMP1 and then anti-mTOR antibodies were applied overnight. Alexa Fluor™ 488 and 594-labelled secondary antibodies were applied before cells were mounted and stained with DAPI.
as §2, with “h.” for “hours.”, “mTOR” for “then anti-mTOR”, “594” for “594-labelled”

TSC1/TSC2 = experiment: GAP assay: TSC1/TSC2-promoted hydrolysis of GTP bound to recombinant GST-Rheb; format: biochemical; conditions: FLAG-TSC1, FLAG-TSC2, [α-32P]GTP, n=3
From the text: as §1, with “FIGS. 1A-1B: Recombinant GST-Rheb proteins were subjected to GAP assay in the presence of FLAG-TSC1, FLAG-TSC2 and [α-^32P] GTP.” for “GTP.”, “antibodies. […] This effect is consistent with lack of sensitivity of the mutant Rhebs to TSC1/TSC2. Thus the Rheb mutants S21L, T23M, G29S, Y35N and E40K promote mTORC1 signalling in the absence of upstream activation due to insensitivity to the GAP activity of the TSC complex.” for “antibodies.”
A) Recombinant GST-Rheb proteins were subjected to GTPase assays in the presence of FLAG-TSC1, FLAG-TSC2 and [α-^32P]GTP. Nucleotide-bound GST-Rheb was purified from the reaction mixture using 20 μl glutathione bead slurry. Radioactive GDP and GTP were separated by thin-layer chromatography and visualized by phosphorimager.

[2] = tested on: CHO cells stably expressing Gaussia luciferase (GLuc); experiment: Secreted Gaussia luciferase assay in CHO cells stably expressing GLuc transfected with Rheb vectors; format: cell-based; conditions: for increase in secreted Gaussia luciferase: day 7, normalised to cell number
Procedure: CHO cells stably expressing Firefly luciferase (FLuc) or Gaussia luciferase (GLuc) as indicated were transfected using Lipofectamine3000 with an empty vector (EV) or vectors for Rheb WT, S21L, T23M, G29S, Y35N or E40K and also treated with the mTOR inhibitor AZD8055 at 100 nM for the total duration where indicated. Fluc and GLuc assays were performed 24 h after transfection and then every 48 h for 7 days. Assay results are normalised to cell number. GLuc-CHO cells were harvested for SDS-PAGE and Western Blot analysis at the 168 h (7-day) time-point to probe for intracellular GLuc, FLAG (Rheb) and actin, as ‘loading control’. […] However, Rheb-T23M and —Y35N caused a significant 3-fold increase in secreted Gaussia luciferase that was also seen with E40K and was prevented by treatment with AZD8055 (C/D [histogram of day 7]). In (E), secreted GLuc was monitored every 4 h from 24 h to 60 h showing the rate of secretion of GLuc was higher when Rheb-T23M is expressed as compared to Rheb-Y35N. The pattern for intracellular levels of Gaussia luciferase (assessed by immunoblot of cell lysates harvested at 7 days post transfection) more closely resemble those intracellular firefly luciferase (F) with little change compared to either the empty vector or WT while still retaining heightened mTORC1 signalling as indicated by the elevated levels of P-S6K1 Thr389 compared to cells transfected with the empty vector. CHO cells expressing Rheb-T23M, Y35N and E40K show a small increases in general protein synthesis but a marked increase in secreted Gaussia protein that is blocked by mTOR inhibition. Thus, Rheb[T23M] selectively promotes production of the secreted protein GLuc in a process that requires mTOR signalling.
Constructs were introduced into CHO cells using Lipofectamine3000 (Life Technologies) according to the manufacturer's protocol. Cell lines stably expressing secreted luciferase were generated by cloning the GLuc gene with a signal sequence from Nanolight Technology (see paper sent with this version) and cloning this into the pcDNA4 commercially available vector where gene expression was driven by a CMV promoter. The subsequent vectors were transfected, using lipofectamine, into CHO-S freestyle suspension cells and grown in CD-CHO media and then stable transfectant pools selected by addition of zeocin antibiotic. Once stable pools had emerged these were subjected to limited dilution cloning to obtain a range of pools with different secreted GLuc expression levels. Methods as are described, for example, in Josse et al. (2009) Biotechnology and Bioengineering 105: 556-566.
For Gaussia luciferase, we employed the BioLux® Gaussia Luciferase Assay Kit (New England Biolabs (NEB), Cat. No. E3300S) and for firefly luciferase the Luciferase Assay System from Promega (Cat. No. E1500). Cells were grown in Ham's F12 medium F12 nutrient mix, Ham's (Life Technologies, Cat. No. 11765054).
CHO cells stably expressing Firefly luciferase (FLuc; which is cytoplasmic) or Gaussia luciferase (GLuc; which is secreted) as indicated were transfected using Lipofectamine3000 with an empty vector (EV) or vectors for Rheb WT, S21L, T23M, G29S, Y35N or E40K and treated with the mTOR inhibitor AZD8055 at 100 nM for the total duration where appropriate. Fluc and GLuc assays were performed at 24 h after transfection and then every 48 h for 7 days. Assay results were normalised to cell number. […]

[3] = tested on: CHO cells stably expressing Firefly luciferase (FLuc); experiment: Firefly luciferase assay in CHO cells stably expressing FLuc transfected with Rheb vectors; format: cell-based; conditions: day 7, normalised to cell number
Procedure: CHO cells stably expressing Firefly luciferase (FLuc) or Gaussia luciferase (GLuc) as indicated were transfected using Lipofectamine3000 with an empty vector (EV) or vectors for Rheb WT, S21L, T23M, G29S, Y35N or E40K and also treated with the mTOR inhibitor AZD8055 at 100 nM for the total duration where indicated. Fluc and GLuc assays were performed 24 h after transfection and then every 48 h for 7 days. Assay results are normalised to cell number. GLuc-CHO cells were harvested for SDS-PAGE and Western Blot analysis at the 168 h (7-day) time-point to probe for intracellular GLuc, FLAG (Rheb) and actin, as ‘loading control’. […] In (E), secreted GLuc was monitored every 4 h from 24 h to 60 h showing the rate of secretion of GLuc was higher when Rheb-T23M is expressed as compared to Rheb-Y35N. The pattern for intracellular levels of Gaussia luciferase (assessed by immunoblot of cell lysates harvested at 7 days post transfection) more closely resemble those intracellular firefly luciferase (F) with little change compared to either the empty vector or WT while still retaining heightened mTORC1 signalling as indicated by the elevated levels of P-S6K1 Thr389 compared to cells transfected with the empty vector. […]

ExpiCHO-S™ cells = experiment: Rabbit IgG secretion by ExpiCHO-S cells stably expressing Rheb variants (Easy-Titer Rabbit IgG Assay); format: cell-based; conditions: single replicate; compared to Rheb-WT or Rheb-Y35N
Procedure: Materials and Methods: ExpiCHO-S™ cells were purchased from ThermoFischer Scientific and cultured in ExpiCHO™ Expression Medium at 37° C. at 8% CO2. […] Transfected cells were grown in 600 μg/mL […] for 6 weeks. Surviving cells were plated as single cells in a 96-well plate and monoclonal colonies selected for FLAG-Rheb expression.
Rabbit IgG secretion was determined using the ExpiCHO™ Expression system according to the manufacturer's instructions. Briefly, ExpiCHO™ cells expressing either endogenous Rheb or stably expressing exogenous Rheb were seeded at 6×10^6 cells/mL in 25 mL of ExpiCHO™ Expression Medium and transfected with 20 μg of a pcDNA3.1 vector encoding heavy and light chains of Rabbit IgG at a 1:2 ratio of heavy chain:light chain using ExpiFectamine™ CHO Reagent. 24 hours after transfection, cells were feed with ExpiCHO™ Feed and ExpiFectamine™ CHO Enhancer and transferred to 32° C., 5% CO2. Cells were allowed to grow for 10 days with 100 μL samples taken every day. After 10 days, Cells were pelleted by centrifugation at 4000×g for 30 minutes at 4° C. and the supernatant filtered through a […] PVFD filter and collected. IgG yield was determined using Easy-Titer™ Rabbit IgG Assay kit and calculated from a standard curve.

[4] = tested on: mTORC1 and ER Stress activation markers; experiment: Western blot for mTORC1 and ER stress activation markers in ExpiCHO cells stably expressing Rheb variants; format: cell-based

Molecule	mTORC1 signalling in the absence of upstream activation (mTORC1 signalling)	mTORC1 signalling when co-transfected with TSC1/TSC2 (mTORC1 signalling)	hydrolysis of GTP bound to Rheb promoted by TSC1/TSC2 (TSC1/TSC2)	other results
Rheb-Y35N: human Rheb protein with an asparagine variant at residue 35 (Y35N), SEQ ID NO. 4	increased mTORC1 signalling over both the empty vector and Rheb-WT	no reduction	completely unable to promote hydrolysis of GTP; also recorded: did not promote hydrolysis of GTP	mTOR localisation to the lysosome (overlap with LAMP1) [1]: promote localisation; also recorded: strong mTOR localisation on lysosomes; increase in secreted Gaussia luciferase [2]: 3 fold; increase in synthesis of intracellular Firefly luciferase compared to the empty vector [3]: ca. 1.2 fold
G63A: Rheb mutant G63A tested in the GAP assay [Rheb G63A]			completely unable to promote hydrolysis of GTP; also recorded: did not promote hydrolysis of GTP	
COc1ccc(-c2ccc3c(N4CCOC[C@@H]4C)nc(N4CCOC[C@@H]4C)nc3n2)cc1CO [AZD8055, reference compound]				effect on the Rheb mutant-induced increase in secreted Gaussia luciferase ([2]; AZD8055 at 100 nM for the total duration): prevented
Rheb-E40K: human Rheb protein with a lysine variant at residue 40 (E40K), SEQ ID NO. 5	increased mTORC1 signalling over both the empty vector and Rheb-WT	no reduction	completely unable to promote hydrolysis of GTP; also recorded: did not promote hydrolysis of GTP	rate of IgG secretion determined daily over 10 days (ExpiCHO-S™ cells): maintain a constant rate of IgG secretion over a longer period; ER stress response (Western blot markers) [4]: mild ER stress response; mTORC1 signalling (Western blot markers) [4]: increased mTORC1 signalling; mTOR localisation to the lysosome (overlap with LAMP1) [1]: promote localisation; also recorded: mTORC1 localisation at the lysosome is maintained; increase in secreted Gaussia luciferase [2]: 3 fold
Rheb-S21L: Rheb mutant S21L created by site-directed mutagenesis of human Rheb	increased mTORC1 signalling over both the empty vector and Rheb-WT	no reduction	completely unable to promote hydrolysis of GTP; also recorded: did not promote hydrolysis of GTP	
G29S: Rheb mutant G29S created by site-directed mutagenesis of human Rheb [Rheb G29S]	increased mTORC1 signalling over both the empty vector and Rheb-WT	no reduction	partial resistance; also recorded: a small degree of hydrolysis	
Q64L: Rheb mutant Q64L tested in the GAP assay [Rheb Q64L]			partial resistance; also recorded: a small degree of hydrolysis	
